Measurements: patent US20240374552A1, “Compositions and Methods for Preventing or Reducing the Risk of Metabolic Syndrome” (priority 2021, published 2024)

Legend:
rat = settings: cited from earlier work
mice = experiment: Evaluation toxicity, 90-day daily intragastric administration in mice; type: in vivo; settings: for Percentage of dead mice (%): purity min 95%
[1] = Acute oral gavage toxicity; type: in vivo

Compound: CC(C)(C)c1cc(C=C(C#N)C#N)cc(C(C)(C)C)c1O [tyrphostin AG17, Tyrphostin AG17]
- oral LD50 (rat): 87 mg/kg
- Percentage of dead mice, second evaluation (mice; 5.50 mg/kg to 55.50 mg/kg, lot with minimum purity of 98%): 0%
- Percentage of dead mice (deaths), second evaluation (mice; 100.00 mg/kg, lot with minimum purity of 98%): 10%
- Percentage of dead mice (%) (mice; T2: 0.000175 mg/Kg daily 90 days): 0%
- Percentage of dead mice (%) (mice; T4: 0.0175 mg/Kg daily 90 days): 0%
- Percentage of dead mice (%) (mice; T6: 0.18 mg/Kg daily 90 days): 0%
- Percentage of dead mice (%) (mice; T10: 5.50 mg/Kg daily 90 days): 10%
- Percentage of dead mice (%) (mice; T11: 17.50 mg/Kg daily 90 days): 10%
- Percentage of dead mice (%) (mice; T12: 25.00 mg/Kg daily 90 days): 0%
- Percentage of dead mice (%) (mice; T12: 25.00 mg/Kg daily 90 days, listed as tyrphostin): did not show any dead mice
- Percentage of dead mice (%) (mice; T13: 28.00 mg/Kg daily 90 days): 10%
- Percentage of dead mice (%) (mice; T14: 40.00 mg/Kg daily 90 days): 10%
- Percentage of dead mice (%) (mice; T15: 50.00 mg/Kg daily 90 days): 20%
- Percentage of dead mice (%) (mice; T16: 55.50 mg/Kg daily 90 days): 20%
- Percentage of dead mice (%) (mice; T17: 100.00 mg/Kg daily 90 days): 40%
- LD50 ([1]; C57BL/6, mouse, in vivo): 33.3 mg/kg
- Behavioral alterations ([1]; doses 1.75, 5.5 and 17.5 mg/kg): inhibition in locomotion and piloerection
- Lethal effect ([1]; doses of 1.75, 5.5 and 17.5 mg/kg): no lethal effect observed
- Mortality ([1]; doses of 28, 40 and 55.5 mg/kg): increase in mortality
